Data: BindingDB's records for doi:10.1021/acs.jmedchem.6b00965 (University of Iowa, 2017)

What was measured:
[1] = Activation of BTN3A1 in human Vgamma9Vdelta2 T cells assessed as induction of interleukin 2 stimulated cell proliferation treated for 72 hrs measured on day 11 post last treatment by flow cytometry
[2] = Activation of BTN3A1 in human Vgamma9Vdelta2 T cells assessed as induction of T effector cells mediated K562 cell lysis preincubated with K562 cells for 2 hrs followed by T effector cell addition measured after 4 hrs
[3] = target: T1, Butyrophilin subfamily 3 member A1 (Homo sapiens, UniProt O00481); assay: Activation of BTN3A1 in human Vgamma9Vdelta2 T cells assessed as induction of interleukin 2 stimulated cell proliferation treated for 72 hrs measured on day 11 post last treatment by flow cytometry
[4] = target: T1, Butyrophilin subfamily 3 member A1; assay: Activation of BTN3A1 in human Vgamma9Vdelta2 T cells assessed as induction of T effector cells mediated K562 cell lysis preincubated with K562 cells for 2 hrs followed by T effector cell addition measured after 4 hrs

T1 sequence (O00481 whole entry): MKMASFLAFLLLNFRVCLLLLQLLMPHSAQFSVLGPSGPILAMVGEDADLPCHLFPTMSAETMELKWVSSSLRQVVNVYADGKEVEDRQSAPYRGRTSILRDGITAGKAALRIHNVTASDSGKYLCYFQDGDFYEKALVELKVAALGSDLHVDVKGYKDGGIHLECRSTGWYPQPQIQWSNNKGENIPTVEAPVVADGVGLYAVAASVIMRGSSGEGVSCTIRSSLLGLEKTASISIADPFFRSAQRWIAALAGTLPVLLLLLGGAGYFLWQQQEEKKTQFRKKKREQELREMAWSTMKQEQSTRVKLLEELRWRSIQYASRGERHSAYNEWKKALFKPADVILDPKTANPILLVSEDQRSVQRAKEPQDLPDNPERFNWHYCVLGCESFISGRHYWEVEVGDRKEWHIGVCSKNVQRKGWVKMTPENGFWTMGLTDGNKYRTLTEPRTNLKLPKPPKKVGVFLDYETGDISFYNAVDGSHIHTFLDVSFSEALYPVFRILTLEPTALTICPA

Row | SMILES | EC50 [1] [µM] | EC50 [2] [µM] | EC50 [3] [µM] | EC50 [4] [µM]
1 | COP(=O)(CC/C=C(\C)CO)CP(=O)(OC)OC (stereo not drawn) | > 100 | > 100 |  | 
2 | C/C(=C\CCP(=O)(CP(=O)(OCOC(=O)C(C)(C)C)OCOC(=O)C(C)(C)C)OCOC(=O)C(C)(C)C)CO (stereo not drawn) |  | 0.28 |  | 
3 | CC(=CCCP(=O)(O)CP(=O)(O)O)CO |  | 41 |  | 
4 | CC(C)=CCCP(=O)(CP(=O)(OCOC(=O)C(C)(C)C)OCOC(=O)C(C)(C)C)OCOC(=O)C(C)(C)C (stereo not drawn) | > 100 | 7.3 |  | 
5 | [C]C([C])=[C][C][C]P(=O)(O)[C]P(=O)(O)O |  |  | > 100 | > 100
